Source: patent US20210392882A1, “METHODS AND COMPOSITIONS FOR IMPROVED INSECT REPELLENCY” (Board of Trustees of Michigan State University, priority 2020, published 2021)

Columns and labels:
[1] = tested on: sbt-1 sensilla (sbt-1A and sbt-1B neurons); experiment: Single sensillum recording (SSR) of antennal sbt-1 sensilla; format: cell-based, Aedes aegypti; conditions: for response of sbt-1A neurons in AaOr31−/− mosquitoes: AaOr31 knockout vs ROCK, 10^−2 dilution, FIG. 3A; for response of sbt-1A neuron / response of sbt-1B neuron: wild-type ROCK; for response of sbt-1A neuron: pyrethrum and EBF at 10^−2 dilution; for response of sbt-1B neurons in AaOr31−/− mosquitoes: AaOr31 knockout, specificity control; for response of sbt-1B neuron: pyrethrum at 10^−2
Description: (§1) Single sensilla recording was conducted as described in Liu et al. J Insect Physiol 59, 1169-1177 (2013). Female mosquitoes 4 days after eclosion were anaesthetized (2-3 min on ice) and mounted on a microscope slide (76×26 mm). An antenna was fixed using a double-sided tape to a cover slip resting on a small ball of dental wax to facilitate manipulation. The cover slip was placed at an appropriate angle to the mosquito head. Once mounted, the specimen was placed under a microscope (Nikon SMA645, Japan) and the antenna viewed at a high magnification (1000×). Two tungsten microelectrodes were sharpened in 10% KNO2 at 2-10 V. The reference electrode, which was connected to ground, was inserted into the compound eye of the mosquito and the other was connected to the preamplifier (10×, Syntech, Kirchzarten, Germany) and inserted into the shaft of an olfactory sensillum to complete the electrical circuit to extracellularly record olfactory receptor neuron potentials (Den Otter et al., Journal of Insect Physiology 26, 465-472 (1980)). Controlled manipulation of the electrodes was performed using a micromanipulator (Burleigh PCS-6000, CA). The preamplifier was connected to an analog-to-digital signal converter (IDAC-4, Syntech, Germany), which in turn was connected to a computer for signal recording and visualization. The activity of co-located olfactory receptor neurons in each sensillum was assessed based on the differences in spike amplitude. The large spike amplitude was designated as cell A and the olfactory receptor neuron with the small spike amplitude was designated cell B (Ghaninia et al. Eur J Neurosci 26, 1611-1623 (2007)). Signals were recorded for 10 seconds starting 1 second before stimulation, and the action potentials were counted off-line over a 500-ms period before and after stimulation. The spontaneous firing rates observed in the preceding 500 milliseconds (ms) were subtracted from the total spike rates observed during the 500-ms stimulation, and counts were recorded in units of spikes/second.
(§2) Eighteen compounds besides pyrethrum from different chemical classes were selected for functional classification of olfactory sensilla with various morphological shapes (Extended Data FIG. 2). Each compound was diluted in dimethyl sulfoxide (DMSO) to a stock solution with a concentration of 100 μg/μl. Subsequently, a series of 10-fold dilutions were made from each of the stock solutions for each compound tested. For each dilution, a 10 μl portion was dispersed onto a filter paper strip (4×10 mm), which was then inserted into a Pasteur pipette to create the stimulus cartridge. A sample containing the solvent alone served as control. The airflow across the antennae was maintained constant at a 20 ml/second throughout the experiment. Purified and humidified air was delivered to the preparation through a glass tube (10-mm inner diameter) perforated by a small hole 10 cm away from the end of the tube, into which the tip of the Pasteur pipette could be inserted. The stimulus was delivered to the sensilla by inserting the tip of the stimulus cartridge into this hole and diverting a portion of the air stream (0.5 l/min) to flow through the stimulus cartridge for 500 ms using a stimulus controller (Syntech, Germany). The distance between the end of the glass tube and the antennae was ≤1 cm. The number of spikes/second was obtained by averaging the results for each sensillum/compound combination.
(§3) To identify which mosquito olfactory receptor neuron(s) responds to pyrethrum, single sensillum recordings (SSR) were performed of Ae. aegypti antennal olfactory sensilla in response to a panel of odorants (FIG. 2C-2L), most of which are plant-derived mosquito repellents, such as pyrethrum, (±)-citronellal, geranyl acetate and (−)-borneol. Three responsive sst sensilla were identified, sst1-3, and six responsive sbt sensilla, sbt1-6, based on their response profiles to the odorants in the panel (FIG. 2B, 2D-2L).

[2] = tested on: sst-1 sensilla (sst-1A and sst-1B neurons); experiment: Single sensillum recording (SSR) of antennal sst-1 sensilla; format: cell-based, Aedes aegypti; conditions: for response of sst-1A neuron: wild-type ROCK, pyrethrum at 10^−2; for response of sst-1A neurons: ROCK, 10^−1 dilution, FIG. 4A
Description: as §1, §2, §3

[3] = tested on: Ae. aegypti mosquitoes; experiment: Hand-in-cage spatial repellency assay; format: in vivo, Aedes aegypti; conditions: for repellency in AaOr31−/− mosquitoes compared to wild-type mosquitoes: ROCK wild-type; for effect of (E)-β-farnesene on repellency of the compound: EBF 4 ppm, P-I 1000 ppm, P-II 1000 ppm, (−)-borneol 100 ppm; for repellency in pyrethrum/pyrethroid resistant KDR:ROCK mosquitoes compared to ROCK: FIG. 4G
Description: The hand-in-cage assay employed was similar to the hand-in-glove assay described by Boyle et al. (bioRxiv, 060178 (2016)). The setup for the hand-in-cage assay includes a 30 cm×30 cm×30 cm mosquito cage (BioQuip, Rancho Dominguea, Calif.), with a mounted digital camera and a human hand in a modified glove with a screened window. The digital camera (e-con Systems Inc, San Jose, Calif., model: e-CAM51A) for video recording is mounted on the cage top and connected to a laptop computer. A nitrile rubber glove (Ansell Protective Products, Coshoton, Ohio, part number: 37-155) was cut on the back side of the glove to create a window (6 cm×5 cm) (FIG. 1A). A piece of magnetic frame (slightly larger than the dimension of the window) was glued onto the cut window which was used as a base for stacking more magnetic window frames (FIG. 1A; further explained below). One piece of test compound-treated polyester netting (Shason Textile Inc., part number: WS-B532-111, white; slightly larger than the dimension of the window) was placed on this fixed magnetic frame, which was ˜3.0 mm above the glove. The second piece of the netting was untreated and placed ˜6.0 mm above the treated net using a stack of four magnetic frames. The stacked magnetic frames were further secured with a binder clip. The stacking creates sufficient space between the treated net and the untreated net so that mosquitoes that land on the open window were not able to contact treated net, or to contact and pierce skin of a hand in the glove. The hand makes no contact with the treated net.
The assay was run in a room with humidity between around 50% and temperature between 27° C. to 30° C. Twenty-four hours before an assay, four to nine days-old females (about 40, mated, non-blood fed) were transferred into a mosquito cage. The cage was kept in an incubator where mosquitoes were provided only with water in a cotton ball placed on the top of the cage. Immediately before the assay, one researcher treated pieces of netting with 500 μl test compound dissolved in acetone in a glass Petri dish in an adjacent room. Acetone served a control. After letting acetone evaporate (˜7 min), the researcher assembled and put on a modified glove. In the meantime, a second researcher or a lab assistant transferred the prepared cage from the incubator to a bench in the assay room. Both personnel avoided use of any hand lotions and cosmetic products before an assay and wore white lab coats and gloves during the assay. The hand with the modified glove was introduced into the cage to initiate the assay. Mosquitoes landing on the test window was recorded by the digital camera for five minutes. The number of mosquitoes landing during the second to fifth minutes was counted and recorded. For each cage, solvent (acetone) control was tested first and then followed with a treatment. Data from any cage that gave a low landing number in a control trial were discarded. The time interval of assays between control and treatment was at least 1.5 hours, allowing the mosquitoes to fully recover and residual vapors from experiments to be ventilated out of the room. Percentage repellency was determined for each cage using the following equation:
Percentage repellency=[1−(cumulative number of mosquitoes landed on the window of treatment/cumulative number of mosquitoes landed on the window of solvent treatment)]×100).
The spatial repellency of pyrethrum was examined using a hand-in-cage assay (Ogoma et al. PLoS neglected tropical diseases 11, e0005455 (2017)). In this behavioral assay, mosquitoes were attracted to a human hand in a modified glove (FIG. 1A) with a screened window on the back of the glove. The mosquitoes landed on a piece of control mesh secured on the top of the window. Between the control mesh and the hand is another mesh treated with a test compound, with which mosquitoes cannot make direct contact (FIG. 1A).

[4] = tested on: AgOr31; experiment: SSR of Drosophila ab3A empty neurons expressing AgOr31; format: cell-based, Anopheles gambiae; conditions: 10^−2 dilution
Description: The method of Carey et al. (Nature 464, 66-71 (2010)) was used for heterologous expression of AgORs in the ab3 empty neurons. The Gal4 line (w; Cyo/Δhalo; Or22a-Gal4) was kindly provided by John Carlson (Yale Univ.), and 50 UAS-AgOr lines were obtained from the Bloomington Drosophila stock center.
Having identified sbt-1 and sst-1 as primary olfactory receptor neurons that are responsive to pyrethrum, experiments were designed to identify the specific odorant receptors (Ors) that are involved in these responses. An indexed library of An. gambiae Ors (AgOrs) (Carey et al., Nature 464, 66-71 (2010)) was used. Each of the 50 AgOrs was expressed in the “ab3 empty neuron” system of Drosophila melanogaster, in which the endogenous odorant receptor gene, Or22a, in the ab3 sensillum was deleted (FIG. 2N-2O, FIG. 3A).
Single sensillum recordings (SSR) were then examined from the resulting chimera ab3 sensillum that expressed the individual AgOrs in the D. melanogaster antenna when these flies were exposed to the same panel of odorants used in the analysis of Ae. aegypti sensilla. […] The odorant response profile of the sbt-1A neuron matches remarkably well with that of AgOr31 (FIGS. 2C, 2O).

[5] = 10^−3 dilution, Orlando (wild-type), FIG. 4B

Compound: CC(C)=CCCC(C)CC=O (racemic) [(±)-citronellal]
- response of sbt-1A neurons in AaOr31−/− mosquitoes [1]: completely abolished
- response of sbt-1A neuron [1]: strong excitatory responses
- response of sst-1A neuron [2]: activated
- repellency in AaOr31−/− mosquitoes compared to wild-type mosquitoes ([3]; 10^−2 dilution, FIG. 3B): significantly reduced

Compound: C=CC(=C)CC/C=C(\C)CCC=C(C)C [(E)-β-farnesene]
- response of sbt-1A neurons in AaOr31−/− mosquitoes [1]: completely abolished
- response of sbt-1A neuron [1]: activated
- activation of AgOr31 [4]: activated
- repellency alone ([3]; 4 ppm and 10 ppm, ROCK or AaOr31−/− mosquitoes, FIG. 4H): did not elicit repellency
- repellency in AaOr31−/− mosquitoes compared to wild-type mosquitoes ([3]; 10^−2 dilution, FIG. 3B): significantly reduced
- spatial repellency ([3]; 10^−2 dilution, ROCK, FIG. 3B): elicited spatial repellency
- repellency alone ([3]; 1000 ppm or lower concentrations, FIG. 4H): no repellency
- repellency enhancement by (E)-β-farnesene in AaOr31−/− mosquitoes ([3]; EBF 4 ppm with P-II 1000 ppm, FIG. 4D): abolished
- repellency alone ([3]; at 4 ppm or below): did not exhibit repellency

Compound: CC12CCC(CC1=O)C2(C)C (centres unmarked) [camphor]
- response of sst-1A neuron [2]: activated

Compound: CCCCC/C=C\C/C=C\CCCCCCCC(=O)OCC [ethyl linoleate]
- response of sbt-1A neuron [1]: None
- activation of AgOr31 [4]: None

Compound: CCCCCCCCCCCCCCCC(=O)OCC [ethyl palmitate]
- response of sbt-1A neuron [1]: None
- activation of AgOr31 [4]: None

Compound: CC12CCC(CC1)C(C)(C)O2 [eucalyptol]
- response of sst-1A neuron [2]: activated

Compound: CC(=O)OC/C=C(\C)CCC=C(C)C [geranyl acetate]
- response of sbt-1A neurons in AaOr31−/− mosquitoes [1]: completely abolished
- response of sbt-1A neuron [1]: strong excitatory responses
- repellency in AaOr31−/− mosquitoes compared to wild-type mosquitoes ([3]; 10^−2 dilution, FIG. 3B): significantly reduced

Compound: c1ccc2[nH]ccc2c1 [indole]
- response of sbt-1B neurons in AaOr31−/− mosquitoes [1]: remained intact
- response of sbt-1B neuron [1]: highly sensitive

Compound: C=C/C=C\CC1=C(C)[C@@H](OC(=O)[C@@H]2[C@@H](/C=C(\C)C(=O)OC)C2(C)C)CC1=O [pyrethrin II]
- response of sst-1A neurons [2]: activated
- repellency in orco−/− mosquitoes compared to Orlando ([3]; 10^−3 dilution, FIG. 4B): significantly reduced
- spatial repellency [3, 5]: elicited spatial repellency
- effect of (E)-β-farnesene on repellency of the compound ([3]; ROCK, FIG. 4D): synergized
- repellency in pyrethrum/pyrethroid resistant KDR:ROCK mosquitoes compared to ROCK [3]: reduced

Compound: C=C/C=C\CC1=C(C)[C@@H](OC(=O)[C@@H]2[C@@H](C=C(C)C)C2(C)C)CC1=O [pyrethrin I]
- response of sst-1A neurons [2]: activated
- repellency alone ([3]; 1 ppm, ROCK, FIG. 4E): did not elicit repellency
- repellency in orco−/− mosquitoes compared to Orlando ([3]; 10^−3 dilution, FIG. 4B): significantly reduced
- spatial repellency [3, 5]: elicited spatial repellency
- effect of (E)-β-farnesene on repellency of the compound ([3]; ROCK, FIG. 4D): synergized
- repellency in pyrethrum/pyrethroid resistant KDR:ROCK mosquitoes compared to ROCK [3]: reduced
- synergism with (E)-β-farnesene in repellency ([3]; pyrethrin I 1 ppm, EBF 10 ppm, ROCK, FIG. 4E): still evident

Compound: Cc1ccccc1 [toluene]
- response of sbt-1B neurons in AaOr31−/− mosquitoes [1]: remained intact
- response of sbt-1B neuron [1]: highly sensitive
